Measurements from US11753445B2, “Therapeutic peptides” (COHBAR, INC., priority 2016, dated 2023).

System: 3T3-L1 Adipocytes
Test: Free fatty acid levels in cultured mouse 3T3-L1 adipocytes, isoproterenol stimulated (Example 2)
Assay type: cell-based
Conditions: test peptides 25 μM; isoproterenol 1 nM
How it was run: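 3T3-L1 cells differentiated 12–17 days into adipocytes, then exposed to test peptides at 25 μM final for 18–20 h, then 1 h, then 3 h with isoproterenol (1 nM) at 37 °C. Free fatty acids in the medium measured colorimetrically at 540 nm, corrected for untreated background and expressed relative to isoproterenol-only cells.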

Substance	Free Fatty Acid Levels in 3T3-L1 Adipocytes Expressed as a Percent of Isoproterenol Control: Percent of Control Value [%]
Ac-MRWQEMEYIFYPRKLR-NH2 [compound 188]	86.5
Ac-MRWQEMGEIFEPRKLR-NH2 [compound 135]	79.0
Ac-MRWQEMGEIFYPRKLR-NH2 [compound 189]	87.6
Ac-MRWQEMGYEFYPRKLR-NH2 [compound 190]	95.0
Ac-MRWQEMGYIEYPRKLR-NH2 [compound 191]	81.7
Ac-MRWQEMGYIF-NH2 [compound 64]	90.6
Ac-MRWQEMGYIFEPRKLR-NH2 [compound 192]	66.8
Ac-MRWQEMGYIFY-NH2 [compound 63]	70.5
Ac-MRWQEMGYIFYERKLR-NH2 [compound 193]	71.2
Ac-MRWQEMGYIFYPAKLR-NH2 [compound 34]	70.7
Ac-MRWQEMGYIFYPEKLR-NH2 [compound 194]	107.2
Ac-MRWQEMGYIFYPKKLR-NH2 [compound 129]	82.5
Ac-MRWQEMGYIFYPRALR-NH2 [compound 35]	31.3
Ac-MRWQEMGYIFYPRELR-NH2 [compound 195]	58.9
Ac-MRWQEMGYIFYPRK-NH2 [compound 60]	89.3
Ac-MRWQEMGYIFYPRKER-NH2 [compound 196]	80.5
Ac-MRWQEMGYIFYPRKL-NH2 [compound 59]	92.2
Ac-MRWQEMGYIFYPRKLE-NH2 [compound 197]	84.6
Ac-MRWQEMGYIFYPRKLK-NH2 [compound 130]	85.4
Ac-MRWQEMGYIFYPRRLR-NH2 [compound 131]	78.1
H-ERWQEAGYIAYPRKLA-OH [compound 239]	66.6
H-ERWQEAGYIFYPR-OH [compound 235]	71.8
H-ERWQEAGYIFYPRKLA-OH [compound 233]	69.7
H-ERWQEMGYIFYPRKLR-OH [compound 168]	52.2
H-MEWQEMGYIFYPRKLR-OH [compound 169]	49.2

Substance	Free Fatty Acid Levels in 3T3-L1 Adipocytes Expressed as a Percent of Isoproterenol Control: Percent of Control Value [%]
H-MGWQEMGYIFYPRKLR-OH [compound 77]	112.5
H-MGYIFYPRKLR-OH [compound 42]	115.2
H-MKWQEMGYIFYPRKLR-OH [compound 122]	52.1
H-MREQEMGYIFYPRKLR-OH [compound 170]	48.0
H-MRWEEMGYIFYPRKLR-OH [compound 171]	45.9
H-MRWNEMGYIFYPRKLR-OH [compound 127]	55.6
H-MRWQDMGYIFYPRRLR-OH [compound 126]	55.6
H-MRWQEMEYIFYPRKLR-OH [compound 173]	43.9
H-MRWQEMGEIFEPRKLR-OH [compound 134]	56.2
H-MRWQEMGEIFYPRKLR-OH [compound 174]	38.8
H-MRWQEMGYEFYPRKLR-OH [compound 175]	50.6
H-MRWQEMGYIEYPRKLR-OH [compound 176]	57.0
H-MRWQEMGYIF-OH [compound 50]	97.4
H-MRWQEMGYIFEPRKLR-OH [compound 177]	61.4
H-MRWQEMGYIFY-OH [compound 49]	103.3
H-MRWQEMGYIFYERKLR-OH [compound 178]	67.6
H-MRWQEMGYIFYP-OH [compound 48]	57.1
H-MRWQEMGYIFYPEKLR-OH [compound 179]	47.2
H-MRWQEMGYIFYPKKLR-OH [compound 123]	58.8
H-MRWQEMGYIFYPRELR-OH [compound 180]	47.0
H-MRWQEMGYIFYPRKER-OH [compound 181]	58.9
H-MRWQEMGYIFYPRKLE-OH [compound 182]	36.6
H-MRWQEMGYIFYPRKLK-OH [compound 124]	68.9
H-MRWQEMGYIFYPRRLR-OH [compound 125]	50.2
H-RWQEMNYIFYPR-OH [compound 248]	50.4
